Experiment [1] concerns cBid+Bax. Kind of experiment: Control liposome permeabilization without Bcl-xL, cBid+Bax. The experiment is classed as biochemical. The conditions noted are these: 320 nM pH9 treated TCTP, 100 nM Bax, 20 nM cBid. As to the method: (§1) (A–E) in vitro reconstitution assay on liposome permeabilization. […] The treated Bcl-xL was then added to reactions containing ANTS-DPX liposomes, 100 nM Bax and 20 nM of either cBid (A,B) or cBidmt1(C,D) at pH 7. Liposome permeabilization was quantified by fluorescence after 5h incubation at 37 °C where 100% release was defined as the fluorescence change due to lipid solubilization with 1% Triton X-100. […] Error bars, std. dev. n = 3. To compare between the TCTP treated groups and the Control group statistically, two-way ANOVA test was performed for (A–D) and one-way ANOVA test was performed for (E). […] Colored asterisks above each data point indicate the statistical significance (*p < 0.05; **p < 0.01, no asterisks if p ≥ 0.05). A complete statistical analysis is provided in Supplementary Table 2–4. (F) Permeabilization assays of mitochondrial membrane by tBid and Bax assessing cytochrome c release. […] Cyto c extra-mito: in the supernatant, analysed by Western blot. […]
(§2) Figure 10 A,B) or cBid mt1 (Supplementary Figure 10 C,D) at pH 7 to quantify the activity of Bcl-xL inhibition of liposome permeablization. […]
(§3) the Control group (No TCTP) were analyzed through Dunnett's multiple comparisons test at each sample condition (Bcl-XL concentration) for statistical significance. […]
(§4) Statistical significance was analyzed through Dunnett's multiple comparisons test. […]

The subject of experiment [2] is cBidmt1+Bax. Description: Control liposome permeabilization without Bcl-xL, cBidmt1+Bax. The conditions noted are these: 320 nM pH9 treated TCTP, 100 nM Bax, 20 nM cBidmt1. Type of experiment: biochemical. As to the method:
as §1, §2, §3, §4

In experiment [3] the test system is thymocytes from TCTP^+/− mice. Description: Complementation (viability) of γ-irradiated TCTP+/− thymocytes. The experiment is classed as cell-based, mouse. The conditions noted are these: γ-irradiation 2.5 Gy; overnight culture; 0 to 1000 nM. The source says: Figure 4 Molecular/functional analysis of the h1 (P1) subregion of BH3-TCTP. […]
Peptides used for in vitro assays:
WT-TCTP (11-31): […]
R21A-TCTP (11-31): […]
Hybrid Bax/TCTP: […]
Peptides used for in vivo assays:
WT-TCTP (1-31) : […]
Hybrid Bax-TCTP: […]
TCTP-FLAG peptides used for in vivo assays:
WT-TCTP (1-31)-FLAG : […] DYKDDDDK-OH
TCTP-Bax-TCTP-FLAG: […]-OH […]
subdomain in the BH3 motif is underlined. Peptides were purchased from Smartox […]
Complementation and transduction experiments
In order to complement the haploinsufficient TCTP+/- mice with exogenous TCTP, we took advantage of the fact that the first N-terminal fragment of TCTP functions as a Protein Transduction Domain (PTD), enabling TCTP to penetrate into the cell by a mechanism hitherto […]
not well understood23,27-29. […]
of γ irradiation) and cultured, at a concentration of 10^7 cells/ml, overnight in the presence of […]
20) at concentrations ranging from 0-1000nM. For the transduction assays using WT-TCTP- […]
concentrations were 10 microM, 50 microM and 100 microM.
γ-irradiated thymocytes were fixed by adding 500ul of PFA 4% and incubated for 20 min at room temperature. The cells were washed twice with PBS and permeabilized for 10 min with 0.2% triton X-100 in PBS at room temp. The cells were washed twice with PBS. Proteins were blocked in Blocking buffer (1% BSA 0.5% Tween in PBS) 1h at room temperature. The primary antibody was added with blocking buffer and placed in a rotating wheel overnight in a cold room.
Cells were then washed 3 times with PBS and incubated with secondary antibody with blocking buffer 1h at room temperature. The cells were washed 3 times with PBS and suspended in 200 µL PBS and used for Flow Cytometry or further used for immunohistochemistry: 5 µl of each sample were mixed with 5 µl of ProLong® Gold antifade reagent (Life Technologies) and visualized, using the IX73 inverted fluorescence microscope and the cellSens™ Dimension […]
FACS analysis (BD Accuri™ C6 Cytometer (BD Biosciences) of incorporation of exogenous

With “TCTP: Translationally Controlled Tumor Protein (TCTP/tpt1), recombinant full-length”, the “effect on cBid-Bax induced permeabilization not containing Bcl-xL” value in experiment [1] was “no effect”. Besides, in experiment [2], the “effect on cBidmt1-Bax induced permeabilization not containing Bcl-xL” value is given as “no effect”. The “rescue of TCTP+/− haploinsufficient phenotype / anti-apoptotic function” value in experiment [3] was “rescue completely the TCTP^+/− haploinsufficient phenotype”.

The values above are taken from paper PMC4728560 (Scientific Reports, 2016).
